This note sets out measurements from ChEMBL document CHEMBL1201862, “PubChem BioAssay data set” (2004).

Some test systems named below: UACC-62; ACHN; LXFL 529; DMS-114; M14; KM12; CCRF-CEM; M19-MEL; Malme-3M; RXF 393; KM-20L2; HCT-15; OVCAR-4; RPMI-8226; CAKI-1.
Holding throughout (experiment): NCI tumour cell line growth inhibition, 48 h

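Growth conditions: 96-well plates. Treatment: test compound, 48 hours, 5 concentrations. Analysis: linear interpolation between bracketing concentrations; unreached endpoints set to highest concentration. GI50 is the concentration that inhibits growth by half.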 The source made the active and inactive calls. Cut-off read from the data, not from the text of the source: active = GI50 up to about 1.1 µM and inactive = higher.

As to `CC1CC2=Nc3ccccc3NC(c3ccccc3)C2=C(O)O1` (configuration not stated), the GI50 is 93.8 µM (inactive) in the test with UACC-62; > 100 µM (inactive) in the test on ACHN; > 100 µM (inactive) in the test with LXFL 529; > 100 µM (inactive) in the test with DMS-114; > 100 µM (inactive) with M14; > 100 µM (inactive) with KM12. Moreover, the GI50 in the test with CCRF-CEM is > 100 µM (inactive); with M19-MEL, > 100 µM (inactive); with Malme-3M, > 100 µM (inactive); with RXF 393, > 100 µM (inactive); in the test with KM-20L2 it was > 100 µM (inactive); with HCT-15, greater than 100 µM.
Turning to `CSc1nc(NC(=O)O)c(N(C(C)=O)C(=O)O)c(=O)n1C`, the GI50 in the test on UACC-62, in the test with ACHN, in the test with LXFL 529, with DMS-114, in the test with M14 and in the test with KM12 was > 100 µM (inactive) each time. Besides, the GI50 with CCRF-CEM, with OVCAR-4, with M19-MEL, with Malme-3M, in the test on RXF 393 and in the test with KM-20L2 was > 100 µM (inactive) throughout. In addition, the GI50 with RPMI-8226 was > 100 µM (inactive); in the test with CAKI-1, > 100 µM (inactive); with HCT-15 it was greater than 100 µM.
`CN(CCO)c1nc(=O)c2c([nH]1)CCC2`: the GI50 in the test on UACC-62, in the test with ACHN, in the test with LXFL 529, with DMS-114, with M14 and in the test with KM12 was > 100 µM (inactive) in each case. Moreover, the GI50 in the test on CCRF-CEM, in the test with OVCAR-4, in the test on M19-MEL, in the test on Malme-3M, in the test with RXF 393 and in the test with KM-20L2 was > 100 µM (inactive) throughout. Moreover, the GI50 with RPMI-8226 was > 100 µM (inactive); in the test on CAKI-1 it was > 100 µM (inactive); in the test on HCT-15, greater than 100 µM.
In the case of `Cc1cc(C(C)(C)C)cc(Cc2cc(C(C)(C)C)cc(Cc3cc(C(C)(C)C)cc(C)c3O)c2O)c1O`, the GI50 in the test with UACC-62 was 6.84 µM (inactive); in the test with LXFL 529, 8.04 µM (inactive); in the test with DMS-114 it was 4.21 µM (inactive); with M14, 7.26 µM (inactive); in the test with KM12, 9.66 µM (inactive); with CCRF-CEM, 3.04 µM (inactive). Further, the GI50 is 7.5 µM (inactive) in the test with OVCAR-4; 3.77 µM (inactive) in the test with M19-MEL; 10.7 µM (inactive) with Malme-3M; 2.19 µM (inactive) in the test with RXF 393; 16.1 µM (inactive) in the test with KM-20L2; 2.47 µM (inactive) in the test with RPMI-8226. The GI50 with CAKI-1 was 12.6 µM (inactive); in the test on HCT-15 it was 11.9 µM.
On to `CN1C(=O)NC2(O)c3ccccc3C(=O)C12O` (configuration not stated), for which the GI50 in the test on UACC-62, with LXFL 529, in the test with DMS-114, with M14, with KM12 and in the test with CCRF-CEM was > 100 µM (inactive) each time. Besides, the GI50 with OVCAR-4, in the test on M19-MEL, in the test on Malme-3M, in the test on KM-20L2, with RPMI-8226 and with CAKI-1 was > 100 µM (inactive) in each case. The GI50 with HCT-15 is greater than 100 µM.
In the case of `CC1(C)c2ccccc2C(C)(C)C(C(=O)Nc2ccccc2)C1C(=O)O` (configuration not stated), the GI50 with UACC-62 was > 100 µM (inactive); in the test with ACHN, > 100 µM (inactive); in the test with LXFL 529 it was > 100 µM (inactive); with DMS-114, 91.6 µM (inactive); in the test on M14, > 100 µM (inactive); in the test with KM12, > 100 µM (inactive). Moreover, the GI50 with CCRF-CEM, with M19-MEL, in the test with Malme-3M, with RXF 393, in the test with KM-20L2 and in the test with RPMI-8226 was > 100 µM (inactive) each time.
Regarding `COC1CCC(OS(C)(=O)=O)CO1` (configuration not stated), the GI50 in the test with UACC-62, with ACHN, in the test with LXFL 529, with DMS-114, with M14 and with KM12 was > 100 µM (inactive) each time. Moreover, the GI50 with CCRF-CEM was 22.5 µM (inactive); with OVCAR-4, > 100 µM (inactive); in the test on M19-MEL, > 100 µM (inactive); in the test with Malme-3M it was > 100 µM (inactive); in the test on RXF 393, > 100 µM (inactive); with KM-20L2, > 100 µM (inactive). In the test with RPMI-8226, the GI50 was 26.2 µM (inactive).
As to `C=CCNC1=NC(=O)C(CC(=O)Nc2cccc(Cl)c2)S1` (configuration not stated), the GI50 in the test on UACC-62, with ACHN, in the test with LXFL 529, with DMS-114, in the test on M14 and in the test on KM12 was > 100 µM (inactive) throughout. The GI50 in the test with CCRF-CEM, in the test on OVCAR-4, with M19-MEL, in the test on Malme-3M, in the test on RXF 393 and in the test on KM-20L2 was > 100 µM (inactive) each time. Also, the figures for the GI50 in the test on RPMI-8226, in the test on CAKI-1 and in the test with HCT-15 were > 100 µM (inactive), > 100 µM (inactive) and greater than 100 µM, respectively.
Take `COc1ccc(NC(=O)CC(=O)n2nc(C)c(/N=N/c3ccccc3C(=O)O)c2C)cc1`: the GI50 in the test on UACC-62, in the test with LXFL 529, with DMS-114, with M14, with KM12 and with CCRF-CEM was > 100 µM (inactive) each time. Also, the GI50 with OVCAR-4, in the test with M19-MEL, in the test with Malme-3M, with KM-20L2, in the test on RPMI-8226 and in the test with CAKI-1 was > 100 µM (inactive) each time. Further, in the test with HCT-15, the GI50 was greater than 100 µM.
`C=C/C=C/NC(=O)OCc1ccccc1`: the GI50 in the test on UACC-62, with ACHN, in the test with LXFL 529, in the test with DMS-114, in the test on M14 and in the test with KM12 was > 100 µM (inactive) throughout. In addition, the GI50 in the test with CCRF-CEM was > 100 µM (inactive); in the test on OVCAR-4 it was > 100 µM (inactive); in the test on M19-MEL, > 100 µM (inactive); with RXF 393, > 100 µM (inactive); in the test on KM-20L2 it was > 100 µM (inactive); in the test with RPMI-8226, 82.8 µM (inactive). Further, the GI50 with CAKI-1 was > 100 µM (inactive).
For the molecule `NC(=O)OCC1=C(COC(N)=O)C(=O)c2c(O)ccc(O)c2C1=O`, the GI50 in the test with UACC-62 was 27.3 µM (inactive); with ACHN it was > 100 µM (inactive); in the test with LXFL 529 it was > 100 µM (inactive); in the test on DMS-114, > 100 µM (inactive); in the test on M14 it was > 100 µM (inactive); in the test with KM12, > 100 µM (inactive). Besides, the GI50 was 44.7 µM (inactive) with CCRF-CEM; > 100 µM (inactive) with OVCAR-4; 3.46 µM (inactive) with M19-MEL; > 100 µM (inactive) in the test with Malme-3M; > 100 µM (inactive) in the test on KM-20L2; > 100 µM (inactive) with RPMI-8226. The GI50 with CAKI-1 was > 100 µM (inactive); in the test on HCT-15, greater than 100 µM.
Regarding `CC(C(=O)C(C)O[Si](c1ccccc1)(c1ccccc1)C(C)(C)C)=P(c1ccccc1)(c1ccccc1)c1ccccc1` (configuration not stated), the GI50 with UACC-62 was 3.94 µM (inactive); in the test with ACHN, 4.08 µM (inactive); in the test with LXFL 529, 3.3 µM (inactive); in the test on DMS-114 it was 2.39 µM (inactive); with M14 it was 4.32 µM (inactive); with KM12 it was 3.61 µM (inactive). Also, the GI50 in the test with CCRF-CEM is 3.5 µM (inactive); in the test with OVCAR-4 it was 3.37 µM (inactive); with M19-MEL it was 3.11 µM (inactive); in the test with Malme-3M, 3.13 µM (inactive); in the test on KM-20L2, 4.13 µM (inactive); with RPMI-8226, 2.34 µM (inactive). Moreover, the GI50 in the test on CAKI-1 was 3.21 µM (inactive); in the test with HCT-15, 5.64 µM.
On to `CCCCc1ccc(-n2c3nc(=O)n(C)c(=O)c-3nc3ccccc32)cc1`, for which the GI50 with UACC-62 is 1.77 µM (inactive); in the test on ACHN, 10.7 µM (inactive); with LXFL 529, 15.6 µM (inactive); in the test with DMS-114 it was 4.7 µM (inactive); in the test with M14, 7.89 µM (inactive); in the test with KM12, 11.2 µM (inactive). Further, the GI50 in the test with CCRF-CEM is 13.5 µM (inactive); with OVCAR-4 it was 8 µM (inactive); in the test on M19-MEL it was 1.5 µM (inactive); in the test with Malme-3M it was 7.6 µM (inactive); in the test on RXF 393, 18.4 µM (inactive); in the test on KM-20L2 it was 4.4 µM (inactive). Also, the figures for the GI50 in the test on RPMI-8226, in the test with CAKI-1 and with HCT-15 were 13.7 µM (inactive), 18.4 µM (inactive) and 6.35 µM, respectively.
Consider `Cc1ccc(S(=O)(=O)NC(=O)Nc2nc(Cl)cc(Cl)n2)cc1`, for which the GI50 in the test on UACC-62 is > 100 µM (inactive); in the test on ACHN it was > 100 µM (inactive); with LXFL 529, > 100 µM (inactive); in the test with DMS-114 it was 96.4 µM (inactive); in the test on M14, > 100 µM (inactive); in the test on KM12 it was > 100 µM (inactive). Also, the GI50 in the test on CCRF-CEM, in the test on OVCAR-4, with M19-MEL, in the test with Malme-3M, in the test with RXF 393 and with KM-20L2 was > 100 µM (inactive) in each case. The GI50 in the test on RPMI-8226 and with CAKI-1 was > 100 µM (inactive) each time.
